Measurements as given in article PMC9855333, “1-(Arylsulfonyl-isoindol-2-yl)piperazines as 5-HT6R Antagonists: Mechanochemical Synthesis, In Vitro Pharmacological Properties and Glioprotective Activity” (Biomolecules, 2022).
Values joined by “and” are separate entries in the source; they are usually repeats but may differ in a detail not shown here. Identical values can stand only once. Like-named read-outs stand apart in the source and are kept apart here.

Columns and labels:
[1] = test system: 5-HT6R-operated Cdk5 signaling; assay: Cdk5-dependent neurite growth in NG108-15 cells transiently expressing 5-HT6R; assay type: cell-based; conditions: NG108-15 cells expressing 5-HT6R; for neurite length: treatment for 24 h (legend says 48 h), vehicle 16.95 ± 1.5 μm
Experimental: NG108-15 cells were transfected with plasmids encoding either cytosolic GFP or a GFP-tagged 5-HT6R and grown on glass coverslips for 6 h. Then, cells were treated with either vehicle or the evaluated compounds. Neurite growth was measured on cells imaged using an AxioImagerZ1 microscope equipped with epifluorescence (Zeiss) using the Neuron J plugin of the ImageJ software (NIH). A detailed description is reported in the Supporting Information.
3. Procedure for evaluation of the effect of tested compounds on Cdk5-dependent neurite
In line with previously reported methods, NG108-15 cells were transfected with plasmids encoding either cytosolic GFP or a GFP-tagged 5-HT6R in suspension using Lipofectamine 2000 (Life technologies) and plated on glass coverslips. Six hours after transfection, cells were treated with either DMSO (control), 3e, 3f and 3g or SB-258585 for 48 h. Cells were fixed in 4% paraformaldehyde (PFA) supplemented with 4% sucrose for 10 min. PFA fluorescence was quenched by incubating the cells in PBS containing 0.1 M glycine, prior to mounting in Prolong Gold antifade reagent (Thermo Fisher Scientific). Cells were imaged using an AxioImagerZ1 microscope equipped with epifluorescence (Zeiss), using a 20 × objective for cultured cells, and neurite length was assessed using the Neuron J plugin of the ImageJ software (NIH).

5-HT6R [2] = target: T1, 5-HT6R (Homo sapiens, UniProt P50406); assay: Inhibition of 5-CT-induced cAMP production in 1321N1 cells (LANCE TR-FRET); assay type: cell-based; set-up: host or cells: 1321N1 (frozen recombinant cells); conditions: 5-CT as agonist, mean ± SEM, three independent experiments
T1 sequence (P50406 whole entry): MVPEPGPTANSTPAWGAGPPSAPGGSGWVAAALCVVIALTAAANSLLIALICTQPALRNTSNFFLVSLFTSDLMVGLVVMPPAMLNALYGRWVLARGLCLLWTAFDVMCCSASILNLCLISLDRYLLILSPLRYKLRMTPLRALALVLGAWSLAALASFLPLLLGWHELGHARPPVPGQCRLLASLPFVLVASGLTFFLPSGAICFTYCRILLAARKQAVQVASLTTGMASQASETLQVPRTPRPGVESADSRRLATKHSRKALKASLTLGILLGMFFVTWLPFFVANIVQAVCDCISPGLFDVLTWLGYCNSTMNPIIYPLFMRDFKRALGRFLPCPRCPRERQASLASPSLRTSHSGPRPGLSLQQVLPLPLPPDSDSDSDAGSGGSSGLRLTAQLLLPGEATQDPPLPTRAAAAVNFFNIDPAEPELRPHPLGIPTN

[3] = target: T2, human serotonin 5-HT2A receptor (Homo sapiens, UniProt P28223); assay: Radioligand binding, [3H]-ketanserin displacement, CHO-K1 cells; conditions: mean ± SEM, three independent binding experiments; read-out: Ki [nM] 5-HT2AR
T2 construct: host or cells: CHO-K1
T2 sequence (P28223 whole entry): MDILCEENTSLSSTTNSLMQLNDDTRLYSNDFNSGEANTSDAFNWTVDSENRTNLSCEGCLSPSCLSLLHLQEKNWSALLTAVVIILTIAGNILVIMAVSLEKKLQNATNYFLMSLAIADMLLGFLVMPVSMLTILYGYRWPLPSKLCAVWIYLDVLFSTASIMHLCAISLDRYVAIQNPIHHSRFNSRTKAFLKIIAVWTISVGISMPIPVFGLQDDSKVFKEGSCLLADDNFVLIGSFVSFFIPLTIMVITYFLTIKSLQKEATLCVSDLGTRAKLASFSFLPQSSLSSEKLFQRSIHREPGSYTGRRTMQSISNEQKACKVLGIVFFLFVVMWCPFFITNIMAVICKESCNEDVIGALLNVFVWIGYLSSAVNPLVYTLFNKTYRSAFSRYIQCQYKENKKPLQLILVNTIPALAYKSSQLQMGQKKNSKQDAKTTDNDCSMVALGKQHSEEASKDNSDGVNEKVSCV

5-HT6R [4] = target: T1, 5-HT6R; assay: Radioligand binding, [3H]-LSD displacement, HEK-293 cells; set-up: expressed in transfected cells; conditions: three independent binding experiments
Experimental: All experiments were performed in HEK-293 cells, which stably express the human 5-HT1A, 5-HT6, 5-HT7b, and D2L receptors, or using CHO-K1 cells expressing human serotonin 5-HT2A receptor, following the previously reported procedures. For displacement studies, the following radioligands (PerkinElmer, USA) at given concentrations were used at: 2.5 nM [^3H]-8-OH-DPAT (135.2 Ci/ mmol); 1 nM [^3H]-ketanserin (53.4 Ci/mmol); 2 nM [^3H]-LSD (83.6 Ci/mmol); 0.8 nM [^3H]-5-CT (39.2 Ci/mmol) or 2.5 nM [^3H]-raclopride (76.0 Ci/mmol) for 5-HT1A, 5-HT2A, 5-HT6, 5-HT7b and D2L receptors, respectively. All tested compounds were evaluated in triplicate at 7 concentrations (10^−10–10^−4 M). The inhibition constants (Ki) were calculated from the Cheng–Prusoff equation [25]. A detailed description is reported in the Supporting Information.
All synthesized compounds were evaluated in ^3[H]-LSD competition binding experiments for their affinity for 5-HT6R expressed in HEK-293 cells (Table 1). Embedding the sulfonamide moiety into an unsubstituted isoindoline scaffold was sufficient to provide potent compounds 3a and 3e. […] This effect might result from the favorable localization of the bromine atom at the isoindoline fragment, which enabled compound 3k to adopt an optimal position in the receptor binding pocket via the formation of hydrophobic/steric interactions.
1. Procedure for radioligand binding assay
All experiments were carried out according to the previously published procedures. HEK293 cells stably expressing human 5-HT1A, 5-HT6, 5-HT7b and D2L receptors (prepared with the use of Lipofectamine 2000) or CHO-K1 cells with plasmid containing the sequence coding for the human serotonin 5-HT2A receptor (Perkin Elmer) were maintained at 37 °C in a humidified atmosphere containing 5% CO2 and grown in Dulbecco’s Modified Eagle’s Medium containing 10% dialyzed fetal bovine serum and 500 μg/ml G418 sulfate. For membrane preparation, cells were cultured in 150 cm2 flasks, grown to 90% confluence, washed twice with pre-warmed to 37 °C phosphate buffered saline (PBS) and centrifuged (200 × g) in PBS containing 0.1 mM EDTA and 1 mM dithiothreitol. Prior to membrane preparation, pellets were stored at –80 °C. Cell pellets were thawed and homogenized in 10 volumes of assay buffer using an Ultra Turrax tissue homogenizer and centrifuged twice at 35,000 × g for 15 min at 4 °C, with incubation for 15 min at 37 °C between the centrifugations. The composition of the assay buffers was experimentally selected to achieve the […]
5-HT1AR: 50 mM Tris HCl, 0.1 mM EDTA, 4 mM MgCl2, 10 μM pargyline and 0.1% ascorbate; 5-HT2AR: 50 mM Tris HCl, 0.1 mM EDTA, 4 mM MgCl2 and 0.1% ascorbate;
5-HT6R: 50 mM Tris HCl, 0.5 mM EDTA and 4 mM MgCl2; 5-HT7bR: 50 mM Tris HCl, 4 mM MgCl2, 10 μM pargyline and 0.1% ascorbate; D2LR: 50 mM Tris HCl, 1 mM EDTA, 4 mM MgCl2, 120 mM NaCl, 5 mM KCl, 1.5 mM CaCl2 and 0.1% ascorbate).
All assays were carried out in a total volume of 200 μL in 96-well plates for 1 h at 37 °C, except 5-HT1AR and 5-HT2AR which were incubated at room temperature and 27 °C, respectively.
The process of equilibration was terminated by rapid filtration through Unifilter plates with a 96-well cell harvester and radioactivity retained on the filters was quantified on a Microbeta plate reader (PerkinElmer, USA). For displacement studies the assay samples contained as radioligands (PerkinElmer, USA): 2.5 nM [3H]-8-OH-DPAT (135.2 Ci/ mmol) for 5-HT1AR; 1 nM [3H]-ketanserin (53.4 Ci/mmol) for 5-HT2AR; 2 nM [3H]-LSD (83.6 Ci/mmol) for 5-HT6R; 0.8 nM [3H]-5-CT (39.2 Ci/mmol) for 5-HT7R or 2.5 nM [3H]-raclopride (76.0 Ci/mmol) for D2LR. Non-specific binding was defined in the presence of 10 μM of 5-HT in 5-HT1AR and 5-HT7R binding experiments, 20 μM of mianserin for 5-HT2AR, 10 μM of methiothepine for 5-HT6R or 10 μM of haloperidol for D2LR bidning assays. Each compound was tested in triplicate at 7 concentrations (10-10–10-4 M). The inhibition constants (Ki) were calculated […]

[5] = Table 1, HEK293 cells, read-out: Ki [nM] ± SEM at the 5-HT6R
[6] = Table 2, mean ± SEM, read-out: 5-HT6R Ki

SMILES	neurite length [1] [μm]	Kb (5-HT6R [2]) [nM]	Ki [3] [nM]	Ki (5-HT6R [4]; [5])	Ki (5-HT6R [4]; [6]) [nM]	reduction in neurite growth ([1]; vs vehicle-treated cells) [%]	functional profile at the 5-HT6R-elicited Cdk5 pathway ([1]; neurite growth)
O=S(=O)(c1cccc(N2CCNCC2)c1)N1Cc2ccccc2C1 [3e, 2-{[3-(Piperazin-1-yl)phenyl]sulfonyl}isoindoline]	11.81 ± 2.61	0.7 ± 0.2	128 ± 37	< 5 nM	2 ± 0.2	–	–
O=S(=O)(c1cccc(N2CCNCC2)c1)N1Cc2cccc(Cl)c2C1 [3f, 4-Chloro-2-{[3-(piperazin-1-yl)phenyl]sulfonyl}isoindoline]	10.92 ± 0.89	3.5 ± 0.8	170 ± 32	< 5 nM and 1 nM	1 ± 0.2	–	–
O=S(=O)(c1cccc(N2CCNCC2)c1)N1Cc2cccc(Br)c2C1 [3g, 4-Bromo-2-{[3-(piperazin-1-yl)phenyl]sulfonyl}isoindoline]	8.08 ± 0.84	1.6 ± 0.3	159 ± 25	< 5 nM and 1 nM	1 ± 0.4	50	potent inverse agonist
